According to patent publication US20050208512A1, “Determining the chemosensitivity of cells to cytotoxic agents” (The Ohio State University Research Foundation, priority 2003, published 2005):
Entries after “also recorded” stand apart in the source; their conditions may differ. Read-outs that look alike come from different tables or passages of the source.

Assays:
Type in all cases: cell-based, human
SK-MEL-28 cells = test: SRB cytotoxicity assay in SK-MEL-28 cells transfected with ABCB5 or mock siRNA; conditions: for IC50: 4 days drug, SRB; for Fold reversal: mock vs ABCB5 siRNA; for effect of ABCB5 siRNA on chemosensitivity to the drug: result in words
Experimental: Human cancer cells were transfected with ABCB1, ABCB5 or mock siRNA. Drug activity was measured with the SRB assay. […] Results represent the mean of two or mean±SD of at least three independent experiments.
To identify suitable ABCB5 domains for siRNA-mediated gene silencing, siRNA duplexes against three target domains were synthesized and transfected into SK-MEL-28 cells.
Transfection was performed with TransMessenger Transfection Reagent (QIAGEN). To down-regulate ABCB1 or ABCB5, cancer cells were transfected with 0.3 or 0.6 μM siRNA. For RNA extraction, cells were harvested 48 hours after transfection.
(§1) Cytotoxicity assay. 5FU, Camptothecin, and Mitoxathone were obtained from Sigma. The other compounds were from Developmental Therapeutics Program at NCI. […] Anticancer drugs were added in a dilution series in 6 replicated wells. After 4 days, incubation was terminated by replacing the medium with 100 μl 10% trichloroacetic acid (Sigma, St. Louis, Mo.) in 1×PBS, followed by incubation at 4° C. for at least 1 hour. Subsequently, the plates were washed with water and air-dried. The plates were stained with 100 μl 0.4% SRB (Sigma) in 1% acetic acid for 30 min at room temperature. Unbound dye was washed off with 1% acetic acid. After air-drying and re-solubilization of the protein-bound dye in 10 mM Tris-HCl (pH 8.0), absorbance was read by a micro-plate reader at 570 nm. To determine the IC50 values, the absorbance of control cells without drug was set at 1. Dose-response curves were plotted using SigmaPlot software (RockWare, Golden, Colo.). Each experiment was performed independently at least three times.

NCI/ADR-RES cells = test: SRB cytotoxicity assay in NCI/ADR-RES cells transfected with ABCB1 or mock siRNA; conditions: for Fold reversal: mock vs ABCB1 siRNA; for effect of ABCB1 siRNA on chemosensitivity to the drug: result in words
Experimental: (§2) Human cancer cells were transfected with ABCB1, ABCB5 or mock siRNA. Drug activity was measured with the SRB assay. IC50 is the concentration that produced 50% inhibition of cell growth compared to controls. Results represent the mean of two or mean±SD of at least three independent experiments.
(§3) We next compared growth-inhibitory IC50 values of siRNA-treated to that of mock-treated cells using a sulforhodamine B (SRB) cell proliferation assay.
(§4) Cell lines, obtained from Division of Cancer Treatment and Diagnosis at NCI, were cultured in RPMI 1640 containing 10% heat-inactivated fetal calf serum in a 5% CO2 incubator at 37° C. Transfection was performed with TransMessenger Transfection Reagent (QIAGEN). To down-regulate ABCB1 or ABCB5, cancer cells were transfected with 0.3 or 0.6 μM siRNA. For RNA extraction, cells were harvested 48 hours after transfection.
as §1

HCT-15 cells = test: SRB cytotoxicity assay in HCT-15 cells transfected with ABCB1 or mock siRNA; conditions: for Fold reversal: mock vs ABCB1 siRNA
Experimental: as §2, §3, §4, §1

[1] = ABCB5 siRNA, read-out: IC50 (μM) siRNA
[2] = mock siRNA, read-out: IC50 (μM) Mock
[3] = Homo sapiens, 96 h, ABCB5 siRNA, read-out: IC50 (μM) siRNA
[4] = Homo sapiens, 96 h, mock siRNA, read-out: IC50 (μM) Mock
[5] = Homo sapiens, 96 h, NCI/ADR-RES cells, ABCB1 siRNA, 4 days drug, SRB, read-out: IC50 (μM) siRNA
[6] = Homo sapiens, 96 h, NCI/ADR-RES cells, mock siRNA, 4 days drug, SRB, read-out: IC50 (μM) Mock
[7] = Homo sapiens, 96 h, HCT-15 cells, ABCB1 siRNA, 4 days drug, SRB, read-out: IC50 (μM) siRNA
[8] = Homo sapiens, 96 h, HCT-15 cells, mock siRNA, 4 days drug, SRB, read-out: IC50 (μM) Mock

Structure (SMILES) | Fold reversal (SK-MEL-28 cells) | effect of ABCB5 siRNA on chemosensitivity to the drug (SK-MEL-28 cells) | Fold reversal (NCI/ADR-RES cells; NCI/ADR-RES cells) | Fold reversal (HCT-15 cells; HCT-15 cells) | IC50 (NCI/ADR-RES cells; [5]) [µM] | IC50 (NCI/ADR-RES cells; [6]) [µM] | also measured
O=C1c2c(O)ccc(O)c2C(=O)c2c(NCCNCCO)ccc(NCCNCCO)c21 [Mitoxathone] | 1.37 | no change in potency; also recorded: no effect on potency |  |  |  |  | IC50 (SK-MEL-28 cells; [1]): 0.79 µM; IC50 (SK-MEL-28 cells; [2]): 1.08 µM
CCS(=O)(=O)O.CN(C)C(=O)c1cccc(COc2ccc(N3C(N)=NC(N)=NC3(C)C)cc2Cl)c1 [Baker's antifol, Baker's-soluble-antifol] |  |  | 3.23 ± 0.45 | 1.47 ± 0.29 |  |  | IC50 (NCI/ADR-RES cells; NCI/ADR-RES cells, ABCB1 siRNA, 4 days drug, SRB, read-out: IC50 (μM) siRNA): 131 ± 36.7 µM; IC50 (NCI/ADR-RES cells; NCI/ADR-RES cells, mock siRNA, 4 days drug, SRB, read-out: IC50 (μM) Mock): 420 ± 120 µM; IC50 (HCT-15 cells; HCT-15 cells, ABCB1 siRNA, 4 days drug, SRB, read-out: IC50 (μM) siRNA): 33.7 ± 6.23 µM; IC50 (HCT-15 cells; HCT-15 cells, mock siRNA, 4 days drug, SRB, read-out: IC50 (μM) Mock): 48.2 ± 5.18 µM
CC[C@@]1(O)C(=O)OCc2c1cc1n(c2=O)Cc2cc3cc(O)ccc3nc2-1 [CPT,10-OH] | 3.62 ± 1.35 | Enhanced chemosensitivity |  |  |  |  | IC50 (SK-MEL-28 cells; [1]): 0.14 ± 0.02 µM; IC50 (SK-MEL-28 cells; [2]): 0.48 ± 0.12 µM
CC[C@@]1(O)C(=O)OCc2c1cc1n(c2=O)Cc2cc3ccccc3nc2-1 [Camptothecin] | 2.17 |  |  |  |  |  | IC50 (SK-MEL-28 cells; [3]): 0.06 µM; IC50 (SK-MEL-28 cells; [4]): 0.13 µM
C(=N\NC1=NCCN1)/c1c2ccccc2c(/C=N/NC2=NCCN2)c2ccccc12 [Bisantrene] |  |  | >4.22 | 1.39 |  |  | IC50 (NCI/ADR-RES cells; Homo sapiens, NCI/ADR-RES, 96 h, read-out: IC50 (μM) Mock): > 100 µM; IC50 (NCI/ADR-RES cells; Homo sapiens, NCI/ADR-RES, 96 h, read-out: IC50 (μM) siRNA): 23.7 µM; IC50 (HCT-15 cells; Homo sapiens, HCT-15, 96 h, read-out: IC50 (μM) Mock): 7.63 µM; IC50 (HCT-15 cells; Homo sapiens, HCT-15, 96 h, read-out: IC50 (μM) siRNA): 5.47 µM
O=c1[nH]cc(F)c(=O)[nH]1 [5FU, fluorouracil] | 1.96 ± 0.16 | Enhanced chemosensitivity | 0.90 |  | 1000 | 900 | effect of ABCB1 siRNA on chemosensitivity to the drug (NCI/ADR-RES cells; NCI/ADR-RES cells): unaffected; also recorded: no effect on potency; IC50 (SK-MEL-28 cells; [3]): 6.43 ± 2.67 µM; IC50 (SK-MEL-28 cells; [4]): 12.4 ± 4.6 µM
COC1=C2C[C@@H](C)C[C@H](OC)[C@H](O)[C@@H](C)/C=C(\C)[C@H](OC(N)=O)[C@@H](OC)/C=C\C=C(/C)C(=O)NC(=CC1=O)C2=O [Geldanamycin, geldanamycin] |  |  | 1.95 ± 0.45 | 1.26 ± 0.14 | 3.6 ± 0.6 | 6.84 ± 1.08 | IC50 (HCT-15 cells; [7]): 8.2 ± 3.88 µM; IC50 (HCT-15 cells; [8]): 9.91 ± 3.96 µM
CC(=O)O[C@H]1C(=O)[C@@]2(C)[C@H]([C@H](OC(=O)c3ccccc3)[C@]3(O)C[C@H](OC(=O)[C@H](O)[C@@H](NC(=O)c4ccccc4)c4ccccc4)C(C)=C1C3(C)C)[C@]1(OC(C)=O)CO[C@@H]1C[C@@H]2O [Palitaxel, Paclitaxel] |  |  | 7.57 | 1.72 | 1.06 | 8.01 | effect of ABCB1 siRNA on chemosensitivity to the drug (NCI/ADR-RES cells; NCI/ADR-RES cells): Enhanced chemosensitivity; IC50 (HCT-15 cells; [7]): 0.18 µM; IC50 (HCT-15 cells; [8]): 0.31 µM
COc1cc(NS(C)(=O)=O)ccc1Nc1c2ccccc2nc2ccccc12 [AMSA] |  | no change in potency |  |  |  |  | 
